Source: PubChem BioAssay (NCI)
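1) Cells in 96-well plates. 2) Compound, 48 h, 5 concentrations. 3) Linear interpolation between surrounding doses. 4) Unreached endpoint = highest concentration. GI50 = concentration required for 50% inhibition of growth. Definition used: TGI = concentration required for complete inhibition of growth.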

Columns and labels:
Test in all cases: growth of human tumour cells (NCI), 48 h
[1] = system: OVCAR-4 ovarian
[2] = system: HL-60(TB) leukemia
[3] = system: NCI-H460 lung
[4] = system: SF-539 CNS
[5] = system: TK-10 renal
[6] = system: M14 melanoma
[7] = system: UACC-257 melanoma
[8] = system: OVCAR-8 ovarian
[9] = system: HCC-2998 colon
[10] = system: SK-MEL-5 melanoma
[11] = system: SN12C renal
[12] = system: IGROV1 ovarian
[13] = system: LOX IMVI melanoma
[14] = system: HCT-116 colon
[15] = system: T-47D breast
[16] = system: SK-MEL-2 melanoma
[17] = system: SNB-75 CNS
[18] = system: OVCAR-3 ovarian
[19] = system: SF-295 CNS
[20] = system: CCRF-CEM leukemia
[21] = system: 786-0 renal
[22] = system: SNB-19 CNS
[23] = system: A549 NSCLC
[24] = system: RXF 393 renal
[25] = system: ACHN renal
[26] = system: NCI-H23 lung
[27] = system: EKVX NSCLC
[28] = system: NCI/ADR-RES ovarian
[29] = system: RPMI-8226 leukemia
[30] = system: SK-OV-3 ovarian
[31] = system: SW-620 colon
[32] = system: SK-MEL-28 melanoma
[33] = system: KM12 colon
[34] = system: COLO 205 colon
[35] = system: CAKI-1 renal
[36] = system: BT-549 breast
[37] = system: NCI-H522 lung
[38] = system: PC-3 prostate
[39] = system: DU-145 prostate
[40] = system: SF-268 CNS
[41] = system: OVCAR-5 ovarian
[42] = system: HOP-92 NSCLC
[43] = system: MOLT-4 leukemia
[44] = system: U251 CNS
[45] = system: SR leukemia
[46] = system: MCF7 breast
[47] = system: K-562 leukemia
[48] = system: HCT-15 colon
[49] = system: HS 578T breast
[50] = system: UACC-62 melanoma
[51] = system: UO-31 renal
[52] = system: MDA-MB-231 breast
[53] = system: A498 renal
[54] = system: MALME-3M melanoma
[55] = system: HT29 colon
[56] = system: NCI-H226 lung
[57] = system: HOP-62 NSCLC
[58] = system: MDA-MB-435

CCOc1cc(/C=N\NC(=O)N/N=C/c2ccc(O)c(OCC)c2)ccc1O
GI50 [1]: 54.3 µM
TGI [1]: > 100 µM
GI50 [2]: 2.5 µM
TGI [2]: > 39.2 µM
GI50 [3]: 2.88 µM
TGI [3]: > 67.7 µM
GI50 [4]: 1.42 µM
TGI [4]: > 100 µM
GI50 [5]: > 29.1 µM
TGI [5]: > 100 µM
GI50 [6]: 1.63 µM
TGI [6]: > 100 µM
GI50 [7]: 72.1 µM
TGI [7]: > 100 µM
GI50 [8]: 4.26 µM
TGI [8]: > 100 µM
GI50 [9]: 2.97 µM
TGI [9]: > 100 µM
GI50 [10]: 1.05 µM
TGI [10]: 18 µM
GI50 [11]: 7 µM
TGI [11]: > 100 µM
GI50 [12]: 4.71 µM
TGI [12]: > 100 µM
GI50 [13]: 2.45 µM
TGI [13]: > 100 µM
GI50 [14]: 0.866 µM
TGI [14]: > 100 µM
GI50 [15]: 6.49 µM
TGI [15]: > 100 µM
GI50 [16]: 1.55 µM
TGI [16]: > 100 µM
GI50 [17]: 2.76 µM
TGI [17]: > 100 µM
GI50 [18]: 0.308 µM
TGI [18]: 1.08 µM
GI50 [19]: 2.25 µM
TGI [19]: > 100 µM
GI50 [20]: 2.51 µM
TGI [20]: > 100 µM
GI50 [21]: 7.68 µM
TGI [21]: > 100 µM
GI50 [22]: 4 µM
TGI [22]: > 100 µM
GI50 [23]: 6.95 µM
TGI [23]: > 100 µM
GI50 [24]: 1.76 µM
TGI [24]: 7.19 µM
GI50 [25]: 7.99 µM
TGI [25]: > 100 µM
GI50 [26]: 4.22 µM
TGI [26]: > 100 µM
GI50 [27]: 4.38 µM
TGI [27]: > 100 µM
GI50 [28]: 3.47 µM
TGI [28]: > 100 µM
GI50 [29]: 4.79 µM
TGI [29]: > 53 µM
GI50 [30]: 1.25 µM
TGI [30]: > 100 µM
GI50 [31]: 0.959 µM
TGI [31]: > 100 µM
GI50 [32]: 10.3 µM
TGI [32]: > 100 µM
GI50 [33]: 1.01 µM
TGI [33]: > 100 µM
GI50 [34]: 3.85 µM
TGI [34]: 26.6 µM
GI50 [35]: 3.06 µM
TGI [35]: > 100 µM
GI50 [36]: 24.5 µM
TGI [36]: > 100 µM
GI50 [37]: 0.281 µM
TGI [37]: 1.49 µM
GI50 [38]: 3.51 µM
TGI [38]: > 100 µM
GI50 [39]: 2.21 µM
TGI [39]: > 100 µM
GI50 [40]: 5.69 µM
TGI [40]: > 100 µM
GI50 [41]: 59.3 µM
TGI [41]: > 100 µM
GI50 [42]: 87.5 µM
TGI [42]: > 100 µM
GI50 [43]: 3.41 µM
TGI [43]: > 76.8 µM
GI50 [44]: 1.75 µM
TGI [44]: > 100 µM
GI50 [45]: 0.354 µM
TGI [45]: > 39.1 µM
GI50 [46]: 0.815 µM
TGI [46]: > 100 µM
GI50 [47]: 0.441 µM
TGI [47]: > 100 µM
GI50 [48]: 3.1 µM
TGI [48]: > 100 µM
GI50 [49]: 1.16 µM
TGI [49]: > 100 µM
GI50 [50]: 1.79 µM
TGI [50]: > 100 µM
GI50 [51]: 8.47 µM
TGI [51]: > 100 µM
GI50 [52]: 6.45 µM
TGI [52]: > 100 µM
GI50 [53]: 5.68 µM
TGI [53]: 61.3 µM
GI50 [54]: 0.973 µM
TGI [54]: > 100 µM
GI50 [55]: 3.38 µM
TGI [55]: > 100 µM
GI50 [56]: > 100 µM
TGI [56]: > 100 µM
TGI [57]: > 100 µM

CN(NC(=O)CC(=O)NN(C)C(=S)c1ccc(Cl)cc1)C(=S)c1ccc(Cl)cc1
GI50 [1]: 19.6 µM
TGI [1]: > 100 µM
GI50 [2]: 25.1 µM
TGI [2]: 71.7 µM
GI50 [3]: 4.38 µM
TGI [3]: 63.7 µM
GI50 [4]: 27.6 µM
TGI [4]: > 100 µM
GI50 [5]: 23 µM
TGI [5]: > 100 µM
GI50 [6]: 14.1 µM
TGI [6]: 59.3 µM
GI50 [8]: 23.7 µM
TGI [8]: > 100 µM
GI50 [10]: 15.4 µM
TGI [10]: 46 µM
GI50 [11]: 18.6 µM
TGI [11]: > 100 µM
GI50 [12]: 19.8 µM
TGI [12]: > 100 µM
GI50 [13]: 20.2 µM
TGI [13]: > 100 µM
GI50 [14]: 10.7 µM
TGI [14]: > 100 µM
GI50 [15]: 21.8 µM
TGI [15]: > 100 µM
GI50 [16]: 22.7 µM
TGI [16]: 81.8 µM
GI50 [17]: 22.5 µM
TGI [17]: > 100 µM
GI50 [18]: 13 µM
TGI [18]: 46.4 µM
GI50 [19]: 3.14 µM
TGI [19]: 19.4 µM
GI50 [20]: 7.94 µM
TGI [20]: > 100 µM
GI50 [21]: 24.6 µM
TGI [21]: > 100 µM
GI50 [22]: 23.1 µM
TGI [22]: > 100 µM
GI50 [23]: 3.86 µM
TGI [23]: 71.7 µM
GI50 [24]: 14.7 µM
TGI [24]: 65.4 µM
GI50 [25]: 18.1 µM
TGI [25]: 85.8 µM
GI50 [26]: 12.1 µM
TGI [26]: 46.2 µM
GI50 [27]: 18.8 µM
TGI [27]: > 100 µM
GI50 [58]: 24.4 µM
TGI [58]: > 100 µM
GI50 [28]: 13.6 µM
TGI [28]: 63.7 µM
GI50 [29]: 12.6 µM
TGI [29]: > 100 µM
GI50 [30]: 34.7 µM
TGI [30]: 83.8 µM
GI50 [31]: 29.3 µM
TGI [31]: > 100 µM
GI50 [32]: 15 µM
TGI [32]: 54.5 µM
GI50 [33]: 16.9 µM
TGI [33]: 66.4 µM
GI50 [34]: 23 µM
TGI [34]: 48.5 µM
GI50 [35]: 13.6 µM
TGI [35]: > 100 µM
GI50 [36]: 12.9 µM
TGI [36]: 53 µM
GI50 [37]: 19.1 µM
TGI [37]: 60.2 µM
GI50 [38]: 10.7 µM
TGI [38]: 56.5 µM
GI50 [39]: 21.9 µM
TGI [39]: > 100 µM
GI50 [40]: 19.6 µM
TGI [40]: > 100 µM
GI50 [41]: 25.9 µM
TGI [41]: > 100 µM
TGI [42]: 9.05 µM
GI50 [43]: 17.6 µM
TGI [43]: > 100 µM
GI50 [44]: 21.3 µM
TGI [44]: > 100 µM
GI50 [46]: 18 µM
TGI [46]: > 100 µM
GI50 [47]: 16.4 µM
TGI [47]: > 100 µM
GI50 [48]: 7.72 µM
TGI [48]: > 100 µM
GI50 [49]: 17.7 µM
TGI [49]: 48.7 µM
GI50 [50]: 11.2 µM
TGI [50]: 30.2 µM
GI50 [51]: 10.4 µM
TGI [51]: > 100 µM
GI50 [52]: 19.8 µM
TGI [52]: 65.2 µM
GI50 [54]: 13.2 µM
TGI [54]: 52 µM
GI50 [55]: 23.6 µM
TGI [55]: > 100 µM
GI50 [56]: 13.2 µM
TGI [56]: 45.3 µM
GI50 [57]: 20.5 µM
TGI [57]: 70.8 µM
